# Results from patent US8952024B2, “Herbicidal pyrimidone derivatives” (E I du Pont de Nemours and Company, priority 2009, dated 2015).
# What was measured:
# Assay type in all cases: in vivo
# rice (Oryza sativa) = experiment: Test B flooded paddy test; details: for Plant response rating, Flood, Rice: 250 g ai/ha, flooded paddy test, visual rating on 0 to 100 scale (0 no effect, 100 complete control) after 13 to 15 days; for Plant response rating, Rice: Flood (flooded paddy test), 13 to 15 days
# Procedure, shortened: (§1)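 Greenhouse-held for 13 to 15 days, treated pots were compared visually with controls and scored 0–100 (0, no effect). Treatment had been made into paddy water kept at 3 cm above the soil, with plants at the 2-leaf stage.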
# [1] = tested on: umbrella sedge (Cyperus difformis); experiment: Test B flooded paddy test; details: for Plant response rating, Flood, Sedge, Umbrella: 250 g ai/ha, flooded paddy test, visual rating on 0 to 100 scale (0 no effect, 100 complete control) after 13 to 15 days; for Plant response rating, Sedge, Umbrella: Flood (flooded paddy test), 13 to 15 days
# Procedure, shortened: as §1
# [2] = tested on: ducksalad (Heteranthera limosa); experiment: Test B flooded paddy test; details: for Plant response rating, Flood, Ducksalad: 250 g ai/ha, flooded paddy test, visual rating on 0 to 100 scale (0 no effect, 100 complete control) after 13 to 15 days; for Plant response rating, Ducksalad: Flood (flooded paddy test), 13 to 15 days
# Procedure, shortened: as §1
# [3] = tested on: barnyardgrass (Echinochloa crus-galli); experiment: Test B flooded paddy test; details: for Plant response rating, Flood, Barnyardgrass: 250 g ai/ha, flooded paddy test, visual rating on 0 to 100 scale (0 no effect, 100 complete control) after 13 to 15 days; for Plant response rating, Barnyardgrass: Flood (flooded paddy test), 13 to 15 days
# Procedure, shortened: as §1
# [4] = tested on: velvetleaf (Abutilon theophrasti); experiment: Test A pre-/postemergence plant response
# Procedure, shortened: (§2)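 Greenhouse trial, ~10 days. Soil (loam/sand) sprayed preemergence after seeding; emerged plants (1–2 leaf, 2–10 cm) sprayed postemergence in parallel. Response = visual injury vs untreated control, 0–100.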
# [5] = tested on: barnyardgrass (Echinochloa crus-galli); experiment: Test A pre-/postemergence plant response
# Procedure, shortened: as §2
# [6] = tested on: morningglory (Ipomoea spp.); experiment: Test A pre-/postemergence plant response
# Procedure, shortened: as §2
# [7] = tested on: wheat (Triticum aestivum); experiment: Test A pre-/postemergence plant response
# Procedure, shortened: as §2
# [8] = tested on: pigweed (Amaranthus retroflexus); experiment: Test A pre-/postemergence plant response
# Procedure, shortened: as §2
# [9] = tested on: large crabgrass (Digitaria sanguinalis); experiment: Test A pre-/postemergence plant response
# Procedure, shortened: as §2
# [10] = tested on: giant foxtail (Setaria faberii); experiment: Test A pre-/postemergence plant response
# Procedure, shortened: as §2
# corn (Zea mays) = experiment: Test A pre-/postemergence plant response
# Procedure, shortened: as §2
# [11] = 31 g ai/ha, scale of 0 to 100 where 0 is no effect and 100 is complete control
# [12] = 62 g ai/ha, scale 0 to 100, 0 is no effect, 100 is complete control
# [13] = 125 g ai/ha, scale 0 to 100, 0 is no effect, 100 is complete control
# [14] = Postemergence, 125 g ai/ha, visual injury, 0 to 100 scale (0 no effect, 100 complete control), approx. ten days
# [15] = Postemergence, 500 g ai/ha, 0 to 100 scale, 0 = no effect, 100 = complete control, approx. ten days
# [16] = Preemergence, 125 g ai/ha, 0 to 100 scale, 0 = no effect, 100 = complete control
# [17] = Preemergence, 500 g ai/ha, visual injury, 0 to 100 scale (0 no effect, 100 complete control), approx. ten days
# [18] = 62 g ai/ha, scale of 0 to 100 where 0 is no effect and 100 is complete control
smiles,measurement,setting,value
O=C1CCCC(O)=C1C(=O)c1cnc(-c2ccccc2)n(-c2ccccc2Br)c1=O [Compound 37],"Plant response rating, Flood, Rice",rice (Oryza sativa),20
same,"Plant response rating, Rice",rice (Oryza sativa); [11],0
same,"Plant response rating, Rice",rice (Oryza sativa); [12],0
same,"Plant response rating, Rice",rice (Oryza sativa); [13],0
same,"Plant response rating, Flood, Sedge, Umbrella",[1],40
same,"Plant response rating, Sedge, Umbrella",[1]; [11],0
same,"Plant response rating, Sedge, Umbrella",[1]; [12],20
same,"Plant response rating, Sedge, Umbrella",[1]; [13],30
same,"Plant response rating, Flood, Ducksalad",[2],60
same,"Plant response rating, Ducksalad",[2]; [11],0
same,"Plant response rating, Ducksalad",[2]; [12],30
same,"Plant response rating, Ducksalad",[2]; [13],50
same,"Plant response rating, Flood, Barnyardgrass",[3],0
same,"Plant response rating, Barnyardgrass",[3]; [11],0
same,"Plant response rating, Barnyardgrass",[3]; [12],0
same,"Plant response rating, Barnyardgrass",[3]; [13],0
same,Velvetleaf plant response rating,[4]; [14],100
same,"Plant response rating, Velvetleaf",[4]; [15],100
same,"Plant response rating, Velvetleaf",[4]; [16],50
same,"Plant response rating, Velvetleaf",[4]; [17],90
same,Barnyardgrass plant response rating,[5]; [14],50
same,"Plant response rating, Barnyardgrass",[5]; [15],90
same,"Plant response rating, Barnyardgrass",[5]; [16],0
same,"Plant response rating, Barnyardgrass",[5]; [17],30
same,Morningglory plant response rating,[6]; [14],80
same,"Plant response rating, Morningglory",[6]; [15],100
same,"Plant response rating, Morningglory",[6]; [16],0
same,"Plant response rating, Morningglory",[6]; [17],30
same,Wheat plant response rating,[7]; [14],0
same,"Plant response rating, Wheat",[7]; [15],0
same,"Plant response rating, Wheat",[7]; [16],0
same,"Plant response rating, Wheat",[7]; [17],0
same,Pigweed plant response rating,[8]; [14],100
same,"Plant response rating, Pigweed",[8]; [15],100
same,"Plant response rating, Pigweed",[8]; [16],50
same,"Plant response rating, Pigweed",[8]; [17],100
same,"Crabgrass, Large plant response rating",[9]; [14],70
same,"Plant response rating, Crabgrass, Large",[9]; [15],100
same,"Plant response rating, Crabgrass, Large",[9]; [16],10
same,"Plant response rating, Crabgrass, Large",[9]; [17],50
same,"Foxtail, Giant plant response rating",[10]; [14],70
same,"Plant response rating, Foxtail, Giant",[10]; [15],90
same,"Plant response rating, Foxtail, Giant",[10]; [16],10
same,"Plant response rating, Foxtail, Giant",[10]; [17],50
same,Corn plant response rating,corn (Zea mays); [14],0
same,"Plant response rating, Corn",corn (Zea mays); [15],40
same,"Plant response rating, Corn",corn (Zea mays); [16],0
same,"Plant response rating, Corn",corn (Zea mays); [17],0
Cc1ccc(-n2c(-c3cccc(Cl)c3)ncc(C(=O)C3=C(O)CCCC3=O)c2=O)cc1 [Compound 39],"Plant response rating, Flood, Rice",rice (Oryza sativa),15
same,"Plant response rating, Rice",rice (Oryza sativa); [12],0
same,"Plant response rating, Flood, Sedge, Umbrella",[1],90
same,"Plant response rating, Sedge, Umbrella",[1]; [12],90
same,"Plant response rating, Flood, Ducksalad",[2],90
same,"Plant response rating, Ducksalad",[2]; [12],80
same,"Plant response rating, Flood, Barnyardgrass",[3],30
same,"Plant response rating, Barnyardgrass",[3]; [12],0
same,Velvetleaf plant response rating,[4]; [14],100
same,"Plant response rating, Velvetleaf",[4]; [15],100
same,"Plant response rating, Velvetleaf",[4]; [16],70
same,"Plant response rating, Velvetleaf",[4]; [17],90
same,Barnyardgrass plant response rating,[5]; [14],60
same,"Plant response rating, Barnyardgrass",[5]; [15],90
same,"Plant response rating, Barnyardgrass",[5]; [16],10
same,"Plant response rating, Barnyardgrass",[5]; [17],90
same,Morningglory plant response rating,[6]; [14],80
same,"Plant response rating, Morningglory",[6]; [15],90
same,"Plant response rating, Morningglory",[6]; [16],40
same,"Plant response rating, Morningglory",[6]; [17],60
same,Wheat plant response rating,[7]; [14],0
same,"Plant response rating, Wheat",[7]; [15],0
same,"Plant response rating, Wheat",[7]; [16],0
same,"Plant response rating, Wheat",[7]; [17],0
same,Pigweed plant response rating,[8]; [14],100
same,"Plant response rating, Pigweed",[8]; [15],100
same,"Plant response rating, Pigweed",[8]; [16],60
same,"Plant response rating, Pigweed",[8]; [17],90
same,"Crabgrass, Large plant response rating",[9]; [14],80
same,"Plant response rating, Crabgrass, Large",[9]; [15],90
same,"Plant response rating, Crabgrass, Large",[9]; [16],60
same,"Plant response rating, Crabgrass, Large",[9]; [17],90
same,"Foxtail, Giant plant response rating",[10]; [14],80
same,"Plant response rating, Foxtail, Giant",[10]; [15],90
same,"Plant response rating, Foxtail, Giant",[10]; [16],50
same,"Plant response rating, Foxtail, Giant",[10]; [17],90
same,Corn plant response rating,corn (Zea mays); [14],0
same,"Plant response rating, Corn",corn (Zea mays); [15],40
same,"Plant response rating, Corn",corn (Zea mays); [16],0
same,"Plant response rating, Corn",corn (Zea mays); [17],0
Cc1cccc(-n2c(-c3cccc(Cl)c3)ncc(C(=O)C3=C(O)CCCC3=O)c2=O)c1 [Compound 45],"Plant response rating, Flood, Rice",rice (Oryza sativa),20
same,"Plant response rating, Rice",rice (Oryza sativa); [18],15
same,"Plant response rating, Flood, Sedge, Umbrella",[1],85
same,"Plant response rating, Sedge, Umbrella",[1]; [18],70
same,"Plant response rating, Flood, Ducksalad",[2],90
same,"Plant response rating, Ducksalad",[2]; [18],20
same,"Plant response rating, Flood, Barnyardgrass",[3],30
same,"Plant response rating, Barnyardgrass",[3]; [18],0
same,Velvetleaf plant response rating,[4]; [14],100
same,"Plant response rating, Velvetleaf",[4]; [15],100
same,"Plant response rating, Velvetleaf",[4]; [16],60
same,"Plant response rating, Velvetleaf",[4]; [17],100
same,Barnyardgrass plant response rating,[5]; [14],90
same,"Plant response rating, Barnyardgrass",[5]; [15],100
same,"Plant response rating, Barnyardgrass",[5]; [16],40
same,"Plant response rating, Barnyardgrass",[5]; [17],80
same,Morningglory plant response rating,[6]; [14],80
same,"Plant response rating, Morningglory",[6]; [15],100
same,"Plant response rating, Morningglory",[6]; [16],20
same,"Plant response rating, Morningglory",[6]; [17],90
same,Wheat plant response rating,[7]; [14],0
same,"Plant response rating, Wheat",[7]; [15],40
same,"Plant response rating, Wheat",[7]; [16],0
same,"Plant response rating, Wheat",[7]; [17],20
same,Pigweed plant response rating,[8]; [14],90
same,"Plant response rating, Pigweed",[8]; [15],100
same,"Plant response rating, Pigweed",[8]; [16],80
same,"Plant response rating, Pigweed",[8]; [17],100
same,"Crabgrass, Large plant response rating",[9]; [14],60
same,"Plant response rating, Crabgrass, Large",[9]; [15],90
same,"Plant response rating, Crabgrass, Large",[9]; [16],50
same,"Plant response rating, Crabgrass, Large",[9]; [17],100
same,"Foxtail, Giant plant response rating",[10]; [14],50
same,"Plant response rating, Foxtail, Giant",[10]; [15],90
same,"Plant response rating, Foxtail, Giant",[10]; [16],0
same,"Plant response rating, Foxtail, Giant",[10]; [17],80
same,Corn plant response rating,corn (Zea mays); [14],0
same,"Plant response rating, Corn",corn (Zea mays); [15],20
same,"Plant response rating, Corn",corn (Zea mays); [16],0
same,"Plant response rating, Corn",corn (Zea mays); [17],0
